{"source": "ChEMBL document CHEMBL1130747", "about": "“Synthesis of novel cyclic protease inhibitors using Grubbs olefin metathesis” (Bioorg Med Chem Lett, 1998)", "biological_target": "T1, Rhizopuspepsin (Rhizopus microsporus var. chinensis, UniProt P06026)", "T1 sequence (P06026 whole entry)": "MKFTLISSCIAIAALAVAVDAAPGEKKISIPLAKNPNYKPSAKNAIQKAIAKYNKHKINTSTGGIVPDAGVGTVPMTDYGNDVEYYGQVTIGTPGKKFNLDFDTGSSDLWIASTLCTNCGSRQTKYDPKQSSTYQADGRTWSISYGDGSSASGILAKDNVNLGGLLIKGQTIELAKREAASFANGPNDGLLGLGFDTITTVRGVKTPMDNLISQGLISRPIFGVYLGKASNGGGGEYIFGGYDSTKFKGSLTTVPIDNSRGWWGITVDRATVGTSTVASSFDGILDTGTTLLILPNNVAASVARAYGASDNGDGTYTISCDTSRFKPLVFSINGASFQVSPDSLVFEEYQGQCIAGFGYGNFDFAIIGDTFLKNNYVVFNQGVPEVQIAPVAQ", "assay": "Inhibition of Rhizopus chinensis pepsin using fluorescence assay"}
{"smiles": "CC(C)[C@H]1NC(=O)[C@H](NC(=O)OC(C)(C)C)CCCCCCCC[C@H](CO)NC1=O", "values": [{"measurement": "Ki", "value": 1.31, "unit": "nM"}]}
{"smiles": "CC(C)[C@H]1NC(=O)[C@H](NC(=O)OC(C)(C)C)CCC/C=C\\CCC[C@H](CO)NC1=O", "values": [{"measurement": "Ki", "value": 336, "unit": "nM"}]}
